Drawing on patent US11718622B2, “Heterocyclic adenosine receptor antagonists” (Exelixis, Inc., priority 2020, dated 2023), this text covers IC50 for 29 compounds.

SMILES strings stand for the structures. Some results are limits rather than exact numbers.

In assay [1] the target is Adenosine A2B (ADORA2B) receptor (Homo sapiens (Human), UniProt P29275). The experiment in a line: ADORA2B Receptor Binding Assay. Conditions: radioligand binding, membrane stock. The method, then: ADORA2B Receptor Binding Assay
100 μL of Adenosine A2B membrane stock was dispensed into individual wells of an assay plate. 1 μL of each compound (test compounds, high control compound, low control compound) was then transferred into individual wells, followed by 100 μL of radio-labeled ligand. Plates were then sealed, and incubated at room temperature for 1 hour. Unifilter-96 GF/C filter plates were pre-soaked with 50 μL of 0.5% BSA per well for at least 30 min at room temperature. When binding assays were completed, reaction mixtures were filtered through GF/C plates using a Perkin Elmer Filtermate Harvester, and then each plate was washed 4× with cold wash buffer. Filter plates were then dried for 1 hour at 50° C. After drying, the bottom of the filter plate wells was sealed using Perkin Elmer Unifilter-96 backing seal tape. 50 μL of Perkin Elmer Microscint 20 cocktail was then added, and the top of the filter plate was then sealed using Perkin Elmer TopSeal-A sealing film. ^3H trapped on the filter was counted using a Perkin Elmer MicroBeta2 Reader. Data analysis was performed using GraphPad Prism 5 software, and the “Inhibition[% Control]” was calculated using the following equation: % Inh=(1−Background subtracted Assay value/Background subtracted HC value)*100.

Assay [2] has as its target Adenosine A2a (ADORA2A) receptor (Homo sapiens (Human), UniProt P29274). The experiment in a line: ADORA2A Receptor Binding Assay. The note with it: radioligand binding, membrane stock. As to the method:
ADORA1A and ADORA2A Receptor Binding Assay
2 μL of each compound (test compounds, high control compound, low control compound) was transferred into individual wells of an assay plate. Also to each individual well, 98 μL of Adenosine A1a membrane stock (for ADORA1A Receptor Binding Assay) or Adenosine A2a membrane stock (for ADORA2A Receptor Binding Assay) was dispensed, followed by 100 μL of radio-labeled ligand. Plates were then sealed, and incubated at room temperature for 1 hour (for ADORA1A Receptor Binding Assay) or 2 hours (for ADORA2A Receptor Binding Assay). Unifilter-96 GF/C filter plates were pre-soaked with 50 μL of 0.3% PEI per well for at least 30 min at room temperature. When binding assays were completed, reaction mixtures were filtered through GF/C plates using a Perkin Elmer Filtermate Harvester, and then each plate was washed 4× with cold wash buffer. Filter plates were then dried for 1 hour at 50° C. After drying, the bottom of the filter plate wells was sealed using Perkin Elmer Unifilter-96 backing seal tape. 50 μL of Perkin Elmer Microscint 20 cocktail was then added, and the top of the filter plate was then sealed using Perkin Elmer TopSeal-A sealing film. ^3H trapped on the filter was counted using a Perkin Elmer MicroBeta2 Reader. Data analysis was performed using GraphPad Prism 5 software, and the “Inhibition [% Control]” was calculated using the following equation: % Inh=(1−Background subtracted Assay value/Background subtracted HC value)*100.

Chain of Adenosine A2B (ADORA2B) receptor (P29275 whole entry): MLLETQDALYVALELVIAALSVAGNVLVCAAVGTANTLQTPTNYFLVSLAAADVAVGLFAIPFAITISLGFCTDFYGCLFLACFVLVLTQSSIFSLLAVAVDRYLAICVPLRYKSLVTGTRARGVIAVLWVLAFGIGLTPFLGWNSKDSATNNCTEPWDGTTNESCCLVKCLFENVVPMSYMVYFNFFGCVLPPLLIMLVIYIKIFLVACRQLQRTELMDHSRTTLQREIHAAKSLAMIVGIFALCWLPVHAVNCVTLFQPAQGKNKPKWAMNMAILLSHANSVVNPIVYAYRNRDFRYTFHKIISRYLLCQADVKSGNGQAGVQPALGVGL
Chain of Adenosine A2a (ADORA2A) receptor (P29274 whole entry): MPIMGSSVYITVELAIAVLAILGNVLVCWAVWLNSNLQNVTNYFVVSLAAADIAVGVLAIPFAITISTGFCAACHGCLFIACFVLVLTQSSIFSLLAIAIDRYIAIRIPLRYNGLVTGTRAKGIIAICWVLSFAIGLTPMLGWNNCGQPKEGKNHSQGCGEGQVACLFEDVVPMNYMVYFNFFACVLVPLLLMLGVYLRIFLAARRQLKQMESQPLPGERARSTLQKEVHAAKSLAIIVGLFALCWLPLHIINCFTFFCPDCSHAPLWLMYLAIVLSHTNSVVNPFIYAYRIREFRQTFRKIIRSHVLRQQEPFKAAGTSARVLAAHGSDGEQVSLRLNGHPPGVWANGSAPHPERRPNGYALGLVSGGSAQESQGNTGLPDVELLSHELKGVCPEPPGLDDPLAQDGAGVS

Broadly, the IC50 is the concentration that inhibits the measured activity by half. Read a low IC50 as inhibition by little substance. For the compound `Cc1cc2c(nc(-c3ccc(C)o3)n3nc(C(F)(F)F)nc23)[nH]1` [Compound 88, 11-methyl-7-(5-methylfuran-2-yl)-4-(trifluoromethyl)-3,5,6,8,10-pentazatricyclo[7.3.0.0^2,6]dodeca-1(9),2,4,7,11-pentaene], the IC50 in assay [1] and in assay [2] was less than 10 nM in each case.

For `CC(=O)Nc1cc2nc(C)nn2c(-c2ccco2)n1` [Compound 37, N-[5-(furan-2-yl)-2-methyl-[1,2,4]triazolo[1,5-c]pyrimidin-7-yl]acetamide], the 50% inhibitory concentration (IC50) in assay [1] is 10 to 100 nM; in assay [2], less than 10 nM.

With `Cc1nc2c(Cl)c(N)nc(-c3ccc(F)cc3)n2n1` [Compound 80, 8-chloro-5-(4-fluorophenyl)-2-methyl-[1,2,4]triazolo[1,5-c]pyrimidin-7-amine], the IC50 lay in the range of 100 to 1000 nM in assay [1] and 10 to 100 nM in assay [2].

Consider `Cc1nc2c(Cl)c(N)nc(-c3ccccc3Cl)n2n1` [Compound 84, 8-chloro-5-(2-chlorophenyl)-2-methyl-[1,2,4]triazolo[1,5-c]pyrimidin-7-amine], for which the IC50 in assay [1] and in assay [2] was greater than 1000 nM throughout.

Turning to `Cc1ccc(-c2nc(NC(=O)C3CC3)cn3c(C)cnc23)o1` [Compound 196, N-[3-methyl-8-(5-methylfuran-2-yl)imidazo[1,2-a]pyrazin-6-yl]cyclopropanecarboxamide], the IC50 in assay [1] and in assay [2] was 10 to 100 nM in each case.

On to `Cc1nc2cc(NC(=O)OC(C)(C)C)nc(-c3ccc(S(=O)(=O)O)cc3)n2n1` [Compound 124, 4-[2-methyl-7-[(2-methylpropan-2-yl)oxycarbonylamino]-[1,2,4]triazolo[1,5-c]pyrimidin-5-yl]benzenesulfonic acid], for which the IC50 in assay [1] is greater than 1000 nM; in assay [2], 100 to 1000 nM.

Turning to `Cc1ccc(-c2nc(NC(=O)C3CC3)cn3nc(C(F)F)nc23)o1` [Compound 185, N-[2-(difluoromethyl)-8-(5-methylfuran-2-yl)-[1,2,4]triazolo[1,5-a]pyrazin-6-yl]cyclopropanecarboxamide], the IC50 in assay [1] and in assay [2] was less than 10 nM each time.

In the case of `CNC(=O)Nc1cc2nc(C)nn2c(-c2ccc(F)c(F)c2)n1` [Compound 140, 1-[5-(3,4-difluorophenyl)-2-methyl-[1,2,4]triazolo[1,5-c]pyrimidin-7-yl]-3-methylurea], the IC50 in assay [1] is 100 to 1000 nM; in assay [2] it was 10 to 100 nM.

Regarding `CCc1nc2cc(NC(=O)C3CC3)nc(-c3ccc(C)o3)n2n1` [Compound 8, N-[2-ethyl-5-(5-methylfuran-2-yl)-[1,2,4]triazolo[1,5-c]pyrimidin-7-yl]cyclopropanecarboxamide], the values for the IC50 in assay [1] and in assay [2] were 10 to 100 nM and less than 10 nM, respectively.

As for `CC(=O)Nc1cc2nc(C3COC3)nn2c(-c2ccco2)n1` [Compound 91, N-[5-(furan-2-yl)-2-(oxetan-3-yl)-[1,2,4]triazolo[1,5-c]pyrimidin-7-yl]acetamide], the results for the IC50 in assay [1] and in assay [2] were 10 to 100 nM and less than 10 nM, respectively.

`Cc1ccc(-c2nc(N)cc3nc(C(C)C)nn23)o1` [Compound 13, 5-(5-methylfuran-2-yl)-2-propan-2-yl-[1,2,4]triazolo[1,5-c]pyrimidin-7-amine]: the figures for the IC50 in assay [1] and in assay [2] were 100 to 1000 nM and less than 10 nM, respectively.

Regarding `CNC(=O)Nc1cc2nc(C)nn2c(-c2ccco2)n1` [Compound 108, 1-[5-(furan-2-yl)-2-methyl-[1,2,4]triazolo[1,5-c]pyrimidin-7-yl]-3-methylurea], the IC50 in assay [1] and in assay [2] was less than 10 nM each time.

As for `Cc1nc2c(Cl)c(N)nc(-c3ccccn3)n2n1` [Compound 74, 8-chloro-2-methyl-5-pyridin-2-yl-[1,2,4]triazolo[1,5-c]pyrimidin-7-amine], the IC50 in assay [1] was greater than 1000 nM; in assay [2], 10 to 100 nM.

Regarding `CC(C)c1nc2cc(NC(=O)C3CC3)nc(-c3ccco3)n2n1` [Compound 58, N-[5-(furan-2-yl)-2-propan-2-yl-[1,2,4]triazolo[1,5-c]pyrimidin-7-yl]cyclopropanecarboxamide], the IC50 in assay [1] and in assay [2] was less than 10 nM in each case.

On to `CC(=O)Nc1cc2nc(C(F)(F)F)nn2c(-c2ccc(C)o2)n1` [Compound 41, N-[5-(5-methylfuran-2-yl)-2-(trifluoromethyl)-[1,2,4]triazolo[1,5-c]pyrimidin-7-yl]acetamide], for which the IC50 in assay [1] and in assay [2] was less than 10 nM in each case.

`Cc1nc2cc(NC(=O)C3CC3)nc(-c3ccc(C#N)cc3)n2n1` [Compound 56, N-[5-(4-cyanophenyl)-2-methyl-[1,2,4]triazolo[1,5-c]pyrimidin-7-yl]cyclopropanecarboxamide]: the IC50 in assay [1] is greater than 1000 nM; in assay [2], 100 to 1000 nM.

On to `Cc1nc2c(-c3ccc(C)o3)nc(N)c(Cl)n2n1` [Compound 175, 5-chloro-2-methyl-8-(5-methylfuran-2-yl)-[1,2,4]triazolo[1,5-a]pyrazin-6-amine], for which the IC50 in assay [1] and in assay [2] was less than 10 nM each time.

`CC(=O)Nc1cc2nc(CF)nn2c(-c2ccc(C)o2)n1` [Compound 127, N-[2-(fluoromethyl)-5-(5-methylfuran-2-yl)-[1,2,4]triazolo[1,5-c]pyrimidin-7-yl]acetamide]: the IC50 in assay [1] and in assay [2] was less than 10 nM each time.

As for `Cc1nc2c(Br)c(N)nc(-c3ccc(F)cc3)n2n1` [Compound 83, 8-bromo-5-(4-fluorophenyl)-2-methyl-[1,2,4]triazolo[1,5-c]pyrimidin-7-amine], the IC50 in assay [1] is 100 to 1000 nM; in assay [2] it was 10 to 100 nM.

On to `Cc1cc2c(nc(-c3ccco3)n3nc(C(C)C)nc23)[nH]1` [Compound 81, 7-(furan-2-yl)-11-methyl-4-propan-2-yl-3,5,6,8,10-pentazatricyclo[7.3.0.0^2,6]dodeca-1(9),2,4,7,11-pentaene], for which the IC50 in assay [1] was 10 to 100 nM; in assay [2], less than 10 nM.

`Cc1nc2cc(NC(=O)C3CC3)nc(-c3ccc(S(=O)(=O)O)cc3)n2n1` [Compound 125, 4-[7-(cyclopropanecarbonylamino)-2-methyl-[1,2,4]triazolo[1,5-c]pyrimidin-5-yl]benzenesulfonic acid]: the IC50 in assay [1] and in assay [2] was greater than 1000 nM in each case.

Take `COC(=O)Nc1cn2cc(C)nc2c(-c2ccco2)n1` [Compound 218, methyl N-[8-(furan-2-yl)-2-methylimidazo[1,2-a]pyrazin-6-yl]carbamate]: the IC50 in assay [1] fell in the range of 100 to 1000 nM; in assay [2], 10 to 100 nM.

On to `Cc1nc2c(C#N)c(N)nc(-c3ccc(C)o3)n2n1` [Compound 26, 7-amino-2-methyl-5-(5-methylfuran-2-yl)-[1,2,4]triazolo[1,5-c]pyrimidine-8-carbonitrile], for which the IC50 in assay [1] and in assay [2] was less than 10 nM in each case.

For the compound `Nc1nc(-c2ccccc2)c2nc(C(F)(F)F)nn2c1Cl` [Compound 178, 5-chloro-8-phenyl-2-(trifluoromethyl)-[1,2,4]triazolo[1,5-a]pyrazin-6-amine], the IC50 in assay [1] and in assay [2] was less than 10 nM throughout.

On to `O=C(Nc1cc2nc(C(F)(F)F)nn2c(-c2ccco2)n1)C1CC1` [Compound 68, N-[5-(furan-2-yl)-2-(trifluoromethyl)-[1,2,4]triazolo[1,5-c]pyrimidin-7-yl]cyclopropanecarboxamide], for which the IC50 in assay [1] and in assay [2] was less than 10 nM in each case.

For `Cc1cn2c(Cl)c(N)nc(-c3ccc(F)cc3)c2n1` [Compound 202, 5-chloro-8-(4-fluorophenyl)-2-methylimidazo[1,2-a]pyrazin-6-amine], the IC50 in assay [1] and in assay [2] was 100 to 1000 nM throughout.

Take `COc1ccc(-c2nc(NC(=O)OC(C)(C)C)cc3nc(C)nn23)cc1` [Compound 112, tert-butyl N-[5-(4-methoxyphenyl)-2-methyl-[1,2,4]triazolo[1,5-c]pyrimidin-7-yl]carbamate]: the half-inhibitory concentration (IC50) in assay [1] and in assay [2] was greater than 1000 nM throughout.

With `Cc1nc2cc(NC(=O)C3COC3)nc(-c3ccc(C)o3)n2n1` [Compound 60, N-[2-methyl-5-(5-methylfuran-2-yl)-[1,2,4]triazolo[1,5-c]pyrimidin-7-yl]oxetane-3-carboxamide], the half-maximal inhibitory concentration (IC50) in assay [1] was 10 to 100 nM; in assay [2], less than 10 nM.

With `CCC(=O)Nc1cc2nc(C)nn2c(-c2ccc(C)o2)n1` [Compound 5, N-[2-methyl-5-(5-methylfuran-2-yl)-[1,2,4]triazolo[1,5-c]pyrimidin-7-yl]propanamide], the IC50 was 10 to 100 nM in assay [1] and less than 10 nM in assay [2].
